Values after ≈ are worked out from the molar mass of the structure shown. Values joined by “and” are separate entries in the source; they are usually repeats but may differ in a detail not shown here. Equal entries are not always repeated.
Experiments:
Assay in all cases: ≥ marks a high value that may be exact or a test limit, other limits are often not marked, values filed in µg/mL are converted to µM
[1] = test system: Mycobacterium tuberculosis H37Rv
[2] = test system: Mycobacterium tuberculosis WXY
[3] = test system: Mycobacterium tuberculosis CAS3
[4] = test system: Cryptococcus neoformans var. grubii H99
[5] = test system: Saccharomyces cerevisiae ATCC 2601
[6] = test system: Aspergillus niger A296
[7] = test system: Candida tropicalis IOC 4560
[8] = test system: Aspergillus flavus
[9] = test system: Candida albicans MDM8
[10] = test system: Aspergillus fumigatus NCPF 2109
[11] = test system: Candida parapsilosis IOC 4564
[12] = test system: Staphylococcus aureus ATCC 29213
[13] = test system: Pseudomonas aeruginosa
[14] = test system: Staphylococcus pseudintermedius
[15] = test system: Pseudomonas aeruginosa ATCC 27853
[16] = test system: Bacillus cereus ATCC 10876
[17] = test system: Streptococcus iniae KCTC 3657
[18] = test system: Salmonella enterica subsp. enterica serovar Typhimurium ATCC 14028
[19] = test system: Escherichia coli ATCC 25922
[20] = test system: Salmonella enterica subsp. enterica serovar Pullorum ATCC 7913
[21] = test system: Staphylococcus aureus ATCC 43300
[22] = test system: Staphylococcus aureus ATCC 25923
[23] = test system: Candida krusei CGMCC 2.1857
[24] = test system: Candida tropicalis CGMCC 2.1975
[25] = test system: Pseudomonas aeruginosa PAO1
[26] = test system: Staphylococcus epidermidis ATCC 12228
[27] = test system: Staphylococcus aureus
[28] = test system: Escherichia coli 1005
[29] = test system: Streptococcus pneumoniae
[30] = test system: Escherichia coli
[31] = test system: Candida albicans
[32] = test system: Klebsiella pneumoniae
[33] = test system: Candida parapsilosis CGMCC 2.3989
[34] = test system: Bacillus subtilis KCTC 3068
[35] = test system: Salmonella typhimurium CMCC 50013
[36] = test system: Pseudomonas aeruginosa CICC 21630
[37] = test system: Escherichia coli UB1005
[38] = test system: Escherichia coli K88
[39] = test system: Salmonella enterica subsp. enterica serovar Pullorum C79-13
[40] = test system: Escherichia coli K99
[41] = test system: Acinetobacter baumannii
[42] = test system: Pseudomonas aeruginosa CICC 21625
[43] = test system: Salmonella enterica subsp. enterica serovar Typhimurium C77-31

Question: With `CC(C)C[C@H](NC(=O)[C@H](C)NC(=O)[C@H](C)NC(=O)[C@H](CCCN=C(N)N)NC(=O)[C@H](CO)NC(=O)[C@H](CC(C)C)NC(=O)[C@H](CCCCN)NC(=O)[C@H](CCCCN)NC(=O)[C@H](CCCCN)NC(=O)[C@H](C)N)C(=O)N[C@@H](CCCN=C(N)N)C(=O)N[C@@H](C)C(=O)N[C@@H](C)C(=O)N[C@H](C(=O)N[C@@H](CCCCN)C(=O)O)C(C)C` [AKKKLSRAALRAAVK] as the compound, how does the MIC [1] read?
Answer: ≥ 93.1 µM

Question: And the MIC [2]?
Answer: ≥ 93.1 µM

Question: And the MIC [3]?
Answer: ≥ 93.1 µM

Question: With `CC(C)C[C@H](NC(=O)[C@H](CC(C)C)NC(=O)[C@H](CCCCN)NC(=O)[C@@H](N)Cc1ccccc1)C(=O)N[C@@H](CO)C(=O)N[C@@H](Cc1cnc[nH]1)C(=O)N[C@@H](CO)C(=O)N[C@@H](CC(C)C)C(=O)N[C@@H](CC(C)C)C(=O)N[C@H](C(=O)N[C@H](C(=O)N[C@@H](CC(C)C)C(=O)N[C@@H](C)C(=O)N[C@@H](CO)C(=O)N[C@@H](Cc1cnc[nH]1)C(=O)N[C@@H](CC(C)C)C(=O)N1CCC[C@H]1C(=O)O)[C@@H](C)O)C(C)C` [FKLLSHSLLVTLASHLP] as the compound, how does the MIC [4] read?
Answer: 1.6 µM (≈ 3 µg/mL)

Question: What about the MIC [5] of the same compound?
Answer: 3.1 µM (≈ 5.82 µg/mL)

Question: And the MIC [6]?
Answer: 12.5 µM (≈ 23.5 µg/mL)

Question: And the MIC [7]?
Answer: 2.1 µM (≈ 3.94 µg/mL)

Question: What about the MIC [8] of the same compound?
Answer: ≥ 50 µM

Question: What about the MIC [9] of the same compound?
Answer: 2.1 µM (≈ 3.94 µg/mL)

Question: And the MIC [10]?
Answer: 6.3 µM (≈ 11.8 µg/mL)

Question: What about the MIC [11] of the same compound?
Answer: 12.5 µM (≈ 23.5 µg/mL)

Question: How did the MIC [12] turn out when `CC[C@H](C)[C@H](NC(=O)[C@@H]1CCCN1C(C)=O)C(=O)N[C@@H](Cc1cnc[nH]1)C(=O)N[C@@H](CCCN=C(N)N)C(=O)N[C@@H](CCCN=C(N)N)C(=O)N[C@H](C(=O)N1CCC[C@H]1C(=O)N1CCC[C@H]1C(=O)N[C@@H](CCCN=C(N)N)C(=O)N[C@@H](Cc1c[nH]c2ccccc12)C(=O)N1CCC[C@H]1C(=O)N[C@@H](CCCN=C(N)N)C(=O)N[C@@H](CC(C)C)C(=O)N[C@@H](CCCCN)C(=O)N[C@@H](CCCN=C(N)N)C(=O)N[C@@H](CCCN=C(N)N)C(=O)N[C@@H](Cc1c[nH]c2ccccc12)C(N)=O)[C@@H](C)CC` [PIHRRIPPRWPRLKRRW] was run?
Answer: 27.6 µM (≈ 65.1 µg/mL)

Question: What about the MIC [13] of the same compound?
Answer: 55.2 µM (≈ 130 µg/mL)

Question: And the MIC [14]?
Answer: 27.6 µM (≈ 65.1 µg/mL)

Question: What about the MIC [15] of the same compound?
Answer: 27.6 µM (≈ 65.1 µg/mL)

Question: Which results are given for `CC[C@H](C)[C@H](NC(=O)[C@H](Cc1ccccc1)NC(=O)[C@@H](NC(=O)[C@H](CCCCN)NC(=O)[C@@H](NC(=O)[C@H](CCCCN)NC(=O)[C@H](CCCCN)NC(=O)[C@H](Cc1ccccc1)NC(=O)[C@@H](NC(=O)[C@H](CCCCN)NC(=O)[C@H](CCCN=C(N)N)NC(=O)[C@H](Cc1ccccc1)NC(=O)CNC(=O)[C@H](CCCCN)NC(=O)[C@H](CCCCN)NC(=O)[C@@H](NC(=O)[C@H](CCCCN)NC(=O)[C@H](CCCN=C(N)N)NC(=O)[C@H](Cc1ccccc1)NC(=O)[C@H](Cc1ccccc1)NC(=O)[C@H](CCCCN)NC(=O)[C@H](CCCCN)NC(=O)[C@H](Cc1ccccc1)NC(=O)[C@H](CCCN=C(N)N)NC(=O)[C@H](CCCCN)NC(=O)[C@@H](NC(=O)[C@@H](N)CCCN=C(N)N)C(C)C)[C@@H](C)CC)[C@@H](C)CC)[C@@H](C)O)[C@@H](C)CC)C(=O)NCC(=O)O` [RVKRFKKFFRKIKKGFRKIFKKTKIFIG]?
Answer: MIC [12]: > 35.8 µM; MIC [16]: 12.9 µM (≈ 46 µg/mL); MIC [17]: 8.95 µM (≈ 32 µg/mL); MIC [18]: 0.42 µM (≈ 1.5 µg/mL); MIC [19]: 0.559 µM (≈ 2 µg/mL); MIC [15]: 0.839 µM (≈ 3 µg/mL)

Question: Which results are given for `NC(=O)[C@H](CCCN=C(N)N)NC(=O)[C@H](Cc1c[nH]c2ccccc12)NC(=O)[C@H](CCCN=C(N)N)NC(=O)[C@H](Cc1c[nH]c2ccccc12)NC(=O)[C@H](Cc1c[nH]c2ccccc12)NC(=O)[C@H](Cc1c[nH]c2ccccc12)NC(=O)[C@H](CCCN=C(N)N)NC(=O)[C@H](Cc1c[nH]c2ccccc12)NC(=O)[C@@H](N)CCCN=C(N)N` [RWRWWWRWR]?
Answer: MIC [12]: 4 µM (≈ 6.29 µg/mL); MIC [20]: 2 µM (≈ 3.15 µg/mL); MIC [21]: 2 µM (≈ 3.15 µg/mL); MIC [22]: 4 µM (≈ 6.29 µg/mL); MIC [13]: 16 µM (≈ 25.2 µg/mL); MIC [18]: 4 µM (≈ 6.29 µg/mL); MIC [23]: 4 µM (≈ 6.29 µg/mL); MIC [24]: 2 µM (≈ 3.15 µg/mL); MIC [25]: 16 µM (≈ 25.2 µg/mL); MIC [26]: 4 µM (≈ 6.29 µg/mL); MIC [27]: 8 µM (≈ 12.6 µg/mL); MIC [28]: 2 µM (≈ 3.15 µg/mL); MIC [29]: ≥ 32 µM; MIC [30]: 8 µM (≈ 12.6 µg/mL); MIC [19]: 4 µM and > 2 µM; MIC [31]: 2.83 µM (≈ 4.45 µg/mL); MIC [32]: 32 µM (≈ 50.3 µg/mL); MIC [33]: 16 µM (≈ 25.2 µg/mL)

Question: Which results are given for `CC[C@H](C)[C@H](NC(=O)[C@@H](N)CO)C(=O)N[C@@H](CO)C(=O)N[C@@H](CC(C)C)C(=O)N[C@@H](CC(C)C)C(=O)O` [SISLL]?
Answer: MIC [12]: 158 µM (≈ 83.9 µg/mL); MIC [34]: ≥ 133 µM; MIC [19]: 172 µM (≈ 91.4 µg/mL); MIC [35]: ≥ 186 µM

Question: For `CC(C)[C@H](N)C(=O)N[C@@H](CCCCN)C(=O)N1CCC[C@H]1C(=O)N[C@H](C(=O)N[C@H](C(=O)N[C@@H](CCCCN)C(=O)N1CCC[C@H]1C(=O)N[C@H](C(=O)N[C@H](C(=O)N[C@@H](CCCCN)C(=O)N1CCC[C@H]1C(=O)N[C@H](C(=O)N[C@H](C(=O)N[C@@H](CCCCN)C(=O)N1CCC[C@H]1C(=O)N[C@H](C(=O)N[C@H](C(=O)N[C@@H](CCCCN)C(=O)N1CCC[C@H]1C(=O)N[C@H](C(=O)N[C@H](C(=O)N[C@@H](CCCCN)C(=O)N1CCC[C@H]1C(=O)N[C@H](C(=O)N[C@H](C(=O)N[C@@H](CCCCN)C(=O)N1CCC[C@H]1C(=O)N[C@H](C(N)=O)C(C)C)C(C)C)C(C)C)C(C)C)C(C)C)C(C)C)C(C)C)C(C)C)C(C)C)C(C)C)C(C)C)C(C)C)C(C)C` [VKPVVKPVVKPVVKPVVKPVVKPVVKPV], which MIC [36] is on record?
Answer: ≥ 64 µM

Question: And the MIC [37]?
Answer: ≥ 64 µM

Question: And the MIC [13]?
Answer: > 64 µM

Question: And the MIC [18]?
Answer: > 64 µM

Question: What about the MIC [25] of the same compound?
Answer: > 64 µM

Question: And the MIC [38]?
Answer: ≥ 64 µM

Question: And the MIC [39]?
Answer: ≥ 64 µM

Question: And the MIC [30]?
Answer: > 64 µM

Question: What about the MIC [19] of the same compound?
Answer: > 64 µM

Question: What about the MIC [40] of the same compound?
Answer: ≥ 64 µM

Question: What about the MIC [41] of the same compound?
Answer: ≥ 64 µM

Question: What about the MIC [42] of the same compound?
Answer: ≥ 64 µM

Question: What about the MIC [43] of the same compound?
Answer: ≥ 64 µM

Question: And the MIC [32]?
Answer: > 64 µM

Question: What about the MIC [15] of the same compound?
Answer: > 64 µM

From DBAASP
